Measured values reported in patent US20150238445A1 (CATHOLIC UNIVERSITY INDUSTRY ACADEMIC COOPERATION FOUNDATION, priority 2012, published 2015).

Assays:
lupus animal model = experiment: Serum lupus-specific dsDNA and IgG by ELISA in the lupus animal model; assay type: in vivo, mouse; conditions: oral 100 mg/kg every day
Method: At this time, the lupus animal model not treated with metformin was used as the control. […] The analysis of the treatment effect was performed as follows. […] Serum was separated from the blood extracted above. The levels of lupus-specific dsDNA (Sigma, cat no. D8515) and IgG (Sigma) in the separated serum were measured by ELISA. Particularly, 96-well plate was coated with dsDNA or anti-mouse IgG, to which the serum separated from the mouse blood was loaded, followed by reaction. Then, […] was added thereto, followed by reaction. Color development was induced by TMB system and the […] was measured.

lupus mouse model = experiment: Spleen and liver observation (size, GC follicles, inflammatory cell infiltration) in lupus mouse model; assay type: in vivo
Method: The size of those spleen and liver was measured by the naked eye, and the size and the number of GC follicle (Germinal Center follicle) were also observed.
The infiltration of inflammatory cells around the blood vessels of liver tissue was also observed.

pathogenic B cells = experiment: FACS and staining of spleen cells for pathogenic B cells, GC and THF in lupus mouse model; assay type: in vivo
Source text: Then, spleen cells were separated therefrom and B cell was observed. Particularly, the representative pathogenic B cells, B220−CD138+ long lived plasma B cell and GL7+B220+ germinal center B cell, were observed. For the observation, the spleen cells separated from each group were stained with CD138 and B220 and the […] were stained with GL7 and B220, followed by FACS to examine the expression of each cell.

pathogenic B cell = experiment: IgG production by LPS-stimulated B cell; assay type: cell-based, mouse; conditions: metformin 1 μM, 2 μM, and 5 μM; LPS 1 μg/ml
Method: Then, the level of IgG produced by B cell of the mouse was measured by the same manner as described in Example 1.

B cell = B cell differentiation stages after LPS and metformin for 3 days, FACS; assay type: cell-based
Method: FACS was performed to observe any changes of the cell in each stage of B cell differentiation.

[1] = tested on: regulatory T cell and Th17 cell; experiment: Regulatory T cell and Th17 cell activity in lupus animal model; assay type: in vivo; conditions: vs control group
TFH cell = TFH cell expression in spleen tissue, confocal staining, lupus animal model; assay type: in vivo, mouse; conditions: intraperitoneal injection 3 times a week; 5 weeks after the administration
Method: Particularly, CD4-PerCP, B220-APC, GL-7-FITC, and IOCS-PE fluorescence staining was performed. Then, TFH cells expressing GL-7+ICOS+ in CD4 T cells were examined under fluorescent microscope.

Th17 cell [2] = experiment: Th17 differentiation of CD4+ T cells from lupus mouse spleen: FACS, real-time PCR, IL-17 ELISA; assay type: cell-based; conditions: 3 days
Method: Particularly, T cells were separated from the spleen of the lupus mouse model by using CD4+ microbeads. […] Upon completion of the culture, some of the cultured cells were stained with CD4-PerCP and ILo-17 PE, followed by FACS. RNA was separate from the remaining cells, from which Th17 cell related gene was amplified by real-time PCR. The expression of IL-17 in the culture solution was analyzed by ELISA (antigen-antibody examination).

mTOR/STAT3 = mTOR/STAT3 signalling in T cells from lupus animal model spleen, Western blotting and confocal staining; assay type: cell-based
Method: (§1) Particularly, T cells were separated from the spleen cells of the lupus animal model. […] To analyze signal molecules in the cultured cells, protein was extracted from each condition of the cells. Western blotting was performed with the extracted protein. The protein separated by size was conjugated with each antibody against p-AMPK, AMPK, p-mTOR, mTOR, p-STAT3 705, p-STAST3 727, STAT3, p-STAT5, STAT5, and β-actin. The activity of each molecule was evaluated. Some of the cultured cells were conjugated with p-AMPK, AMPK, p-mTOR, p-STAT3 705, p-STAT3 727, and p-p53 fluorescent antibodies, whose expressions were examined under fluorescent microscope after confocal staining
In addition, nucleus and cytoplasm were separated in order to examine the expression of NrF2 in the nucleus and cytoplasm. Electrophoresis was performed and then Nrf2, tubulin, and β-actin were analyzed by Western blotting.

autophagy = experiment: Autophagy molecules and IL-17/Foxp3 in T cells under Th17 differentiation, Western blotting and confocal staining; assay type: cell-based; conditions: 1 mM metformin, 24 hours
Method: as §1, with “ATG5, p62,” for “p-AMPK, AMPK, p-mTOR, mTOR, p-STAT3 705, p-STAST3 727, STAT3, p-STAT5, STAT5,”, “3-actin.” for “β-actin.”, “DAPI, IL-17,” for “p-AMPK, AMPK, p-mTOR, p-STAT3 705, p-STAT3 727,”, “Foxp3” for “p-p53”, “staining.” for “staining”

Th17 cell [3] = experiment: Th17 cytokine ELISA and electron microscopy with autophagy activity inhibitor in T cells of lupus mouse model; assay type: cell-based
Method: Thus, the present inventors investigated whether or not the activation of autophagy could be directly involved in the suppression of Th17 cell by using an autophagy activity inhibitor. Particularly, T cells were separated from the spleen cells of the lupus mouse model. […] Upon completion of the culture, IL-17, IL-21, and TNF-α cytokines in the culture solution were analyzed by ELISA. Some of those cultured cells were observed under electron microscope to directly observe the activated autophagy therein.

undifferentiated B cell = experiment: Differentiation of undifferentiated B cell into regulatory B cell (Breg); assay type: cell-based; conditions: undifferentiated B cell treated with metformin
Source text: As a result, the numbers of both IL-10+ B cell and Foxp3+ B cell were all increased.

[4] = vs lupus group not treated with metformin
[5] = oral 100 mg/kg every day for 3 weeks, spleen cells, FACS, vs control
[6] = staining of spleen cells, vs lupus mouse model not treated
[7] = real-time PCR, Th17 differentiation
[8] = 1 mM metformin with IL-6 or IL-2 (10 ng/ml), 24 hours

With CN(C)C(=N)NC(=N)N [metformin] as the compound, how does the “level of IgG in serum” value (lupus animal model; [4]) read?
The value was “significantly reduced”.

What about the “level of lupus-specific dsDNA in serum” value (lupus animal model; [4]) of the same compound?
Its value is “significantly reduced”.

What about the “level of lupus-specific dsDNA in serum compared with normal mouse group” value (lupus animal model; vs normal (wild type) mouse group) of the same compound?
The value was “rather lower than that of the normal mouse group”.

What about the “size and number of GC follicle” value (lupus mouse model; spleen, vs group not treated with metformin) of the same compound?
Its value is “significantly decreased”.

And the size of spleen (lupus mouse model; vs group not treated with metformin)?
The size of spleen was “significantly reduced”.

What about the “infiltration of inflammatory cells around the blood vessels of liver tissue” value (lupus mouse model; vs lupus mouse group not treated with metformin) of the same compound?
Its value is “hardly observe”.

And the “B220-CD138+ long lived plasma B cell” value (pathogenic B cells; [5])?
Its value is “significantly reduced”.

And the “GL7+B220+ germinal center B cell” value (pathogenic B cells; [5])?
Its value is “significantly reduced”.

What about the “number of follicular B helper T cells (THF)” value (pathogenic B cells; [6]) of the same compound?
The value was “also reduced”.

And the “size of GC” value (pathogenic B cells; [6])?
Its value is “significantly reduced”.

And the “IgG production in B cell” value (pathogenic B cell)?
The value was “reduced by metformin dose-dependently”.

And the “germinal center B cell” value (B cell)?
Its value is “suppressed by metformin dose-dependently”.

What about the “pre-long lived plasma cell B220+CD138 low cell” value (B cell) of the same compound?
Its value is “suppressed by metformin dose-dependently”.

What about the “pro/preB cell in the stage of early B cell differentiation” value (B cell) of the same compound?
Its value is “suppressed by metformin dose-dependently”.

What about the “activity of Th17” value [1] of the same compound?
Its value is “decreased”.

And the “activity of regulatory T cell” value [1]?
Its value is “increased”.

What about the “expression of TFH cell expressing ICOS in the spleen tissue” value (TFH cell) of the same compound?
Its value is “suppressed”.

And the “expression of IL-17” value (Th17 cell [2]; Th17 differentiation condition, metformin 0.1, 1, and 5 mM, FACS and ELISA)?
Its value is “regulated by metformin”.

And the “expression of Foxp3 gene” value (Th17 cell [2]; [7])?
The value was “increased”.

And the “expression of Th-17 related gene Ahr” value (Th17 cell [2]; [7])?
The value was “suppression”.

And the “expression of Th-17 related gene IL-17” value (Th17 cell [2]; [7])?
Its value is “suppression”.

What about the “expression of Th-17 related gene IL-21” value (Th17 cell [2]; [7]) of the same compound?
The value was “suppression”.

What about the “expression of Th-17 related gene RUNX1” value (Th17 cell [2]; [7]) of the same compound?
The value was “suppression”.

What about the “expression of Th-17 related gene TNF-α” value (Th17 cell [2]; [7]) of the same compound?
Its value is “suppression”.

What about the AMPK activity (mTOR/STAT3; [8]) of the same compound?
Its AMPK activity is “activated”.

And the mTOR/STAT3 activity (mTOR/STAT3; [8])?
Its mTOR/STAT3 activity is “suppression”.

What about the “expression of NrF2” value (mTOR/STAT3; 1 mM metformin, nucleus and cytoplasm, Western blotting) of the same compound?
Its value is “increased”.

What about the “ATG5 (autophagy activating molecule)” value (autophagy; Western blotting) of the same compound?
Its value is “activate”.

What about the “p62 (autophagy activating molecule)” value (autophagy; Western blotting) of the same compound?
Its value is “activate”.

And the “expression of Foxp3” value (autophagy; confocal staining)?
The value was “increase”.

What about the “expression of IL-17” value (autophagy; confocal staining) of the same compound?
Its value is “suppress”.

And the “suppressed IL-17 expression when the autophagy inhibitor was co-treated” value (Th17 cell [3]; 1 mM metformin plus 10 μM bafilomycin or methyladenine, 72 hours, ELISA)?
The value was “increased”.

What about the “expression of IL-17” value (Th17 cell [3]; 1 mM metformin, Th17 differentiation, 72 hours, ELISA) of the same compound?
Its value is “suppressed”.

And the “intracellular activation of autophagy” value (Th17 cell [3]; electron microscope)?
The value was “directly confirmed”.

And the “number of Foxp3+ B cell” value (undifferentiated B cell)?
The value was “increased”.

And the “number of IL-10+ B cell” value (undifferentiated B cell)?
The value was “increased”.
